# According to US6139840A, “Methods of eliciting an antibody response using flea protease proteins and homologs thereof” (priority 1997, dated 2000):
# Read-outs that look alike come from different tables or passages of the source. Square brackets hold non-standard residues; d marks the D form. Peptide text beside a SMILES is read from it. * marks the point of attachment. Sta = CC(C)C[C@H](N)[C@@H](O)CC(=O)O; Isovaleryl = CC(C)CC(=O)*
# B1: Soybean Trypsin Inhibitor: serine protease inhibitor, available from Sigma (protein, UniProt P01070 25-205, looked up)
# Trypsin inhibitor A: DFVLDNEGNPLENGGTYYILSDITAFGGIRAAPTGNERCPLTVVQSRNELDKGIGTIISSPYRIRFIAEGHPLSLKFDSFAVIMLCVGIPTEWSVVEDLPEGPAVKIGENKDAMDGWFRLERVSDDEFNNYKLVFCPQQAEDDKCGDIGISIDHDDGTRRLVVSKNKPLVVQFQKLDKESL
# Experiments:
# [1] = system: flea midgut proteases; assay: Protease substrate gel analysis of flea midguts with protease inhibitors in the incubation buffers; type: biochemical; settings: for effect on protease activity in protease substrate gel: unfed and fed female midguts, AEBSF 1 mM, soybean trypsin inhibitor 100 μg/ml, leupeptin 10 μg/ml in all incubation buffers
# Method: Protease substrate gels (available from Novex, San Diego, Calif., as Novex Zymogels) were 10% polyacrylamide-SDS gels with 0.1% gelatin. Samples and gels were processed according to Novex instructions. Briefly, samples were diluted in SDS-PAGE sample buffer without reducing agents. Tris-glycine SDS-PAGE was carried out by standard procedures. After electrophoresis, gels were incubated in 0.25% Triton X-100 at room temperature for 30 minutes (min), then in developing buffer (50 mM (millimolar) Tris-HCl pH 7.0, 5 mM CaCl2, 0.02% Brij 35, 0.2 M (molar) NaCl) at room temperature for 30 min, and then incubated with fresh developing buffer at 37° C., usually overnight. Gels were then stained 30 min in 0.5% coomassie R-250, 40% methanol, 10% acetic acid and destained in 40% methanol, 10% acetic acid.
# Three unfed female midguts and 0.75 fed female midguts were evaluated in duplicate in several protease substrate gels. Each gel was cut in half. Half was processed as described in Example 2, while the other half contained protease inhibitors in all incubation buffers. The following inhibitors were evaluated:
# Mixed-sex fed flea midguts were processed as described in U.S. Pat. No. 5,356,622, ibid. Aliquots of several steps of the procedure were evaluated by loading an equivalent of 0.4 midguts per lane of a protease substrate gel as described in Example 2. Samples were from the low speed supernatant (lanes 2 and 9), sonicated midguts (lanes 3 and 10), high speed supernatant (lanes 4 and 11), combined low and high speed supernatants (FGS) (lanes 5 and 12) and the high speed pellet (lanes 6 and 13). Lanes 7 and 8 contained 50 nanograms (ng) of trypsin as a control. Duplicate lanes were evaluated. The gel was cut in half, and lanes 1-7 were processed as described in Example 2, and lanes 8-14 were processed with 100 μg/ml soybean trypsin inhibitor in all the incubation buffers.
# [2] = system: adult fleas; assay: Flea feeding system: viability and fecundity of fleas fed blood containing protease inhibitors; type: in vivo; settings: for Fecundity Days 1-7 / Adult Survival Female / Adult Survival Male / Adult Survival Total: percent of corresponding control group; for reduction in adult viability: not statistically significant
# Method: This Example evaluates the effect of a number of protease inhibitors on flea viability and fecundity in a flea feeding system as described by Wade et al. ibid.
# Protease inhibitor compounds were tested in groups of 3 to 6 including appropriate control groups. Inhibitors were not tested in groups of common inhibition types. Rather, they were tested in groups based on the diluent needed to dissolve them. (AEBSF, aprotinin, bestatin, leupeptin, phosphoramidon, soybean trypsin inhibitor and soybean trypsin/chymotrypsin inhibitor were dissolved in water; E-64 and pepstatin were dissolved in ethanol). This reduced the number of control (diluent only) groups needed within a particular assay. Inhibitor concentrations were chosen such that the lower concentration used was within the range recommended by the supplier for that inhibitor. The higher concentration was typically 10 times above the lower concentration and was used to look for dose response.
# The general protocol for all of the assays was as follows: Approximately 2000 newly emerged adult fleas were placed in feeding chambers to feed on normal blood for about 24 to 48 hr. The fleas were prefed for two reasons: The first was to be certain that only fleas that would feed in the feeding system were used in the comparative study.
# The prefed fleas were placed in "minifeeder" feeding chambers at a ratio of about 80 female fleas to about 20 male fleas for a total of about 100 fleas per chamber. Actual total number of fleas per chamber varied from about 90 to 125 fleas. […] Three chambers were prepared for each experimental and control group. A fresh blood meal containing the appropriate inhibitor in 3 ml total volume was placed on each chamber daily through the 7 day extent of an assay.
# On days 3, 5, and 7 of the assay, surviving adult fleas were transferred to clean chambers. The contents of the original chambers were dissolved in about 40 ml of PBS (phosphate-buffered saline) in a 50 ml Falcon tube. The contents of a given tube were then filtered through a preweighed #1 Whatman filter disk inserted into a vacuum filter. The 50 ml tube and the filter funnel were rinsed with distilled water which was then passed through the filter. Once the chamber contents had been filtered, dead adult fleas were removed from the filter paper and placed in a labelled tube so that they could be counted and sexed. The filter paper was then placed into a preweighed 12×75 polypropylene tube and dried in the SpeedVac for 2.5 hr with the heater on. After drying the filter paper was weighed. The weight of the filter paper and tube was subtracted to obtain the dry weight of the eggs and this value was converted to an estimated number of eggs using the formula y=41384.361x+162.37, where x=dry weight of eggs.
# On day 7, adult fleas that had survived the study were frozen, counted and sexed. The numbers were added to the number of male and female fleas that had died during the assay to verify the number of male and female fleas in each chamber at the start of the study.
# Female, male and total adult flea survival were calculated for all experimental and control groups on days 3, 5, and 7 of each assay. Additionally, the number of eggs per surviving female was calculated on days 3, 5 and 7. Female fleas found dead on a given collection date were included in the total number of egg-laying females for the days between that date and the previous collection date, providing a conservative estimate of fecundity. Fecundity values were averaged for the three collection dates to obtain an average for each group over 7 days.
# Results of these studies are presented below in Table 1 and FIG. 6 through FIG. 9. All survival and fecundity values are presented below as a percent of control value.
# [3] = system: flea aminopeptidase; assay: Leu-AMC cleavage by serine protease-depleted flea midgut lysate; type: biochemical
# Method: The starting material for the isolation of a flea aminopeptidase was a flea midgut lysate preparation that had been depleted of serine proteases by passage over a benzamidine-Sepharose affinity column. To assay for aminopeptidase activity, the synthetic substrate L-Leucine-AMC (Leu-AMC), which releases a fluorescent AMC leaving group upon proteolytic cleavage, was incubated with the serine protease-depleted flea midgut preparation. Aminopeptidase activity was easily detectable with as little as 1.2 μg of lysate, both confirming the presence of an aminopeptidase (as indicated in other Examples herein) and allowing for the detection of aminopeptidase activity in fractions collected throughout subsequent fractionation and purification procedures.
# [4] = system: leucine aminopeptidase; assay: Leu-AMC cleavage by control protease; type: biochemical; settings: 10 mM EDTA, 86 μg/ml bestatin; substrate Leu-AMC
# [5] = at the concentrations tested in blood meal
# [6] = 1 mM pefabloc, 1 mg/ml trypsin/chymotrypsin inhibitor, 1 mg/ml trypsin inhibitor, 1 mM TPCK, 1 μg/ml pepstatin, 10 μg/ml E-64, 10 μg/ml leupeptin, 10 mM EDTA, 86 μg/ml bestatin, lysate about 1.2 μg and about 12 μg
# [7] = 1 μg/ml in blood meal, second 1 μg/ml line under E-64
# [8] = 10 μg/ml in blood meal, second 10 μg/ml line under E-64
molecule,measurement,setting,value
"Cl.NCCc1ccc(S(=O)(=O)F)cc1 [AEBSF, 4-2-aminoethyl-benzenesulfonylfluoride-hydrochloride]",effect on protease activity in protease substrate gel,[1],only inhibitors to have any effect
same,Fecundity Days 1-7,[2]; 0.3 mM in blood meal,82.4%
same,Fecundity Days 1-7,[2]; 0.5 mM in blood meal,95.0%
same,Adult Survival Female,[2]; 5.0 mM in blood meal,6.8%
same,Adult Survival Male,[2]; 5.0 mM in blood meal,0.0%
same,Adult Survival Total,[2]; 5.0 mM in blood meal,5.6%
same,Fecundity Days 1-7,[2]; 5.0 mM in blood meal,1.4%
same,Adult Survival Female,[2]; 6.0 mM in blood meal,4.1%
same,Adult Survival Male,[2]; 6.0 mM in blood meal,0.0%
same,Adult Survival Total,[2]; 6.0 mM in blood meal,3.4%
same,Fecundity Days 1-7,[2]; 6.0 mM in blood meal,17.2%
same,reduction in flea fecundity,[2]; about 5 mM to about 6 mM in blood meal,more than 80%
same,adult survival,"[2]; about 5 mM to about 6 mM in blood meal, p<0.05",reduced to near zero
CC(C)C[C@H](NC(=O)[C@@H](O)[C@H](N)Cc1ccccc1)C(=O)O [Bestatin],Fecundity Days 1-7,[2]; 1.3 mM in blood meal,60.4%
same,reduction in fecundity,"[2]; 1.3 mM in blood meal, significant (p<0.05)",40%
same,Fecundity Days 1-7,[2]; 13.0 mM in blood meal,23.3%
same,reduction in fecundity,"[2]; 13 mM in blood meal, significant (p<0.05)",77%
same,effect on adult viability,[2]; [5],no significant effect on adult viability
same,inhibition of the flea protease that cleaved Leu-AMC,[3]; [6],inhibited
same,inhibition of the control protease,[4],inhibited
"CC(C)CC(NC(=O)C1OC1C(=O)O)C(=O)NCCCCNC(=N)N [E-64, trans-epoxysuccinyl-L-leucylamido-(4-guanidino)butane]",Adult Survival Female,[2]; [7],77.3%
same,Adult Survival Male,[2]; [7],80.0%
same,Adult Survival Total,[2]; [7],77.5%
same,Fecundity Days 1-7,[2]; [7],95.2%
same,Adult Survival Female,[2]; 1 μg/ml in blood meal,99.9%
same,Fecundity Days 1-7,[2]; 1 μg/ml in blood meal,109.4%
same,Adult Survival Female,[2]; [8],90.2%
same,Adult Survival Male,[2]; [8],91.1%
same,Adult Survival Total,[2]; [8],90.6%
same,Fecundity Days 1-7,[2]; [8],84.1%
same,Fecundity Days 1-7,[2]; 10 μg/ml in blood meal,177.4%
same,effect on fecundity,[2]; [5],no statistically significant reduction in fecundity
same,total adult flea survival,"[2]; dissolved in grain alcohol, 1 μg/ml in blood","small, but significant (p<0.05), reduction"
same,total adult flea survival,"[2]; in grain alcohol, 10 μg/ml in blood",not evident
same,inhibition of the flea protease that cleaved Leu-AMC,[3]; [6],Only bestatin inhibited
"O=C(O)CN(CCN(CC(=O)O)CC(=O)O)CC(=O)O [EDTA, ethylenediaminetetraacetic acid]",inhibition of the flea protease that cleaved Leu-AMC,[3],Only bestatin inhibited
same,inhibition of the control protease,[4],inhibited
CC(=O)N[C@@H](CC(C)C)C(=O)N[C@@H](CC(C)C)C(=O)N[C@H](C=O)CCCNC(=N)N [Leupeptin],effect on protease activity in protease substrate gel,[1],only inhibitors to have any effect
same,reduction in adult viability,[2]; 5 μg/ml in blood meal,30%
same,Adult Survival Female,[2]; 5 μg/ml in blood meal,71.0%
same,Adult Survival Male,[2]; 5 μg/ml in blood meal,61.4%
same,Adult Survival Total,[2]; 5 μg/ml in blood meal,68.4%
same,Fecundity Days 1-7,[2]; 5 μg/ml in blood meal,85.0%
same,effect on adult viability,[2]; 50 μg/ml in blood meal,not affected
same,Fecundity Days 1-7,[2]; 50 μg/ml in blood meal,77.6%
same,effect on fecundity,[2]; [5],no effect on fecundity
same,inhibition of the flea protease that cleaved Leu-AMC,[3],Only bestatin inhibited
CC(C)CC(=O)N[C@H](C(=O)N[C@H](C(=O)N[C@@H](CC(C)C)[C@@H](O)CC(=O)N[C@@H](C)C(=O)N[C@@H](CC(C)C)[C@@H](O)CC(=O)O)C(C)C)C(C)C [Pepstatin A] (Isovaleryl-VV[Sta]A[Sta]-OH),Adult Survival Female,[2]; 1 μg/ml in blood meal,77.6%
same,Adult Survival Male,[2]; 1 μg/ml in blood meal,96.6%
same,Adult Survival Total,[2]; 1 μg/ml in blood meal,80.5%
same,Fecundity Days 1-7,[2]; 1 μg/ml in blood meal,67.7%
same,reduction in fecundity,"[2]; 1 μg/ml in blood meal, significant (p<0.05)",32%
same,Fecundity Days 1-7,[2]; 10 μg/ml in blood meal,83.9%
same,effect on adult viability,[2]; [5],no significant effect on adult viability
same,inhibition of the flea protease that cleaved Leu-AMC,[3],Only bestatin inhibited
CC(C)C[C@H](NP(=O)(O)O[C@@H]1O[C@@H](C)[C@H](O)[C@@H](O)[C@H]1O)C(=O)N[C@@H](Cc1c[nH]c2ccccc12)C(=O)O [Phosphoramidon],Adult Survival Female,[2]; 10 μg/ml in blood meal,98.8%
same,Adult Survival Male,[2]; 10 μg/ml in blood meal,95.2%
same,Adult Survival Total,[2]; 10 μg/ml in blood meal,97.8%
same,Fecundity Days 1-7,[2]; 10 μg/ml in blood meal,89.0%
same,Adult Survival Female,[2]; 100 μg/ml in blood meal,70.2%
same,Adult Survival Male,[2]; 100 μg/ml in blood meal,64.6%
same,Adult Survival Total,[2]; 100 μg/ml in blood meal,69.7%
same,Fecundity Days 1-7,[2]; 100 μg/ml in blood meal,84.9%
same,effect on fecundity,[2]; [5],no significant reduction in fecundity
same,reduction in adult viability,[2]; concentration not given,about 30%
"Cc1ccc(S(=O)(=O)N[C@@H](Cc2ccccc2)C(=O)CCl)cc1 [TPCK, N-tosyl-L-phenylalanine chloromethyl ketone]",inhibition of the flea protease that cleaved Leu-AMC,[3]; [6],Only bestatin inhibited
Cl.NCCc1ccc(S(=O)(=O)F)cc1 [pefabloc],inhibition of the flea protease that cleaved Leu-AMC,[3]; [6],Only bestatin inhibited
B1,inhibition of protease activity in protease substrate gel,"[1]; mixed-sex fed flea midgut fractions, 100 μg/ml in all incubation buffers",majority of the activity was inhibited
same,effect on protease activity in protease substrate gel,[1],only inhibitors to have any effect
same,effect on fecundity,[2]; 10 μg/ml in blood meal,no effect
same,Adult Survival Female,[2]; 10 μg/ml in blood meal,80.1%
same,Adult Survival Male,[2]; 10 μg/ml in blood meal,101.7%
same,Adult Survival Total,[2]; 10 μg/ml in blood meal,83.9%
same,Fecundity Days 1-7,[2]; 10 μg/ml in blood meal,96.1%
same,Adult Survival Female,[2]; 100 μg/ml in blood meal,76.5%
same,Adult Survival Male,[2]; 100 μg/ml in blood meal,76.0%
same,Adult Survival Total,[2]; 100 μg/ml in blood meal,76.3%
same,Fecundity Days 1-7,[2]; 100 μg/ml in blood meal,79.1%
same,reduction in fecundity,"[2]; 100 μg/ml in blood meal, statistically insignificant",20%
same,inhibition of the flea protease that cleaved Leu-AMC,[3],Only bestatin inhibited
